# Literature values in patent US20240115670A1, “FIBROBLAST ACTIVATION PROTEIN MODULATION TO ALTER IMMUNE CELL MIGRATION AND TUMOR INFILTRATION” (Georgetown University, priority 2021, published 2024).
# Columns and labels:
# colon carcinoma = conditions: combination with oxaliplatin; cited from earlier work
# serum DPPIV = serum DPPIV (Homo sapiens, UniProt P27487); conditions: cited from earlier work
# [1] = tested on: primitive hematopoietic progenitor cells; conditions: by increasing G-CSF, IL-6, and IL-11 from bone marrow stromal cells; cited from earlier work
# [2] = tested on: advanced non-small cell lung cancer; conditions: cited from earlier work
# myeloma cells = conditions: coculture with osteoclasts; cited from earlier work
# [3] = tested on: syngeneic tumors derived from fibrosarcoma, lymphoma, melanoma, mastocytoma, rhabdomyosarcoma and bladder cancer cell lines; conditions: oral administration; cited from earlier work
# [4] = tested on: advanced metastatic colorectal cancer; conditions: cited from earlier work
# myeloma = conditions: in vivo; cited from earlier work
# stage IV melanoma = conditions: cited from earlier work
# gastric cancer = conditions: via downregulation of FAP; cited from earlier work
# CAF = conditions: via downregulation of FAP; cited from earlier work
# [5] = tested on: advanced or metastatic FAP+ cancer; conditions: cited from earlier work
# [6] = tested on: metastatic colorectal cancer; conditions: cited from earlier work
# Chain of serum DPPIV (P27487 39-766 limits assumed): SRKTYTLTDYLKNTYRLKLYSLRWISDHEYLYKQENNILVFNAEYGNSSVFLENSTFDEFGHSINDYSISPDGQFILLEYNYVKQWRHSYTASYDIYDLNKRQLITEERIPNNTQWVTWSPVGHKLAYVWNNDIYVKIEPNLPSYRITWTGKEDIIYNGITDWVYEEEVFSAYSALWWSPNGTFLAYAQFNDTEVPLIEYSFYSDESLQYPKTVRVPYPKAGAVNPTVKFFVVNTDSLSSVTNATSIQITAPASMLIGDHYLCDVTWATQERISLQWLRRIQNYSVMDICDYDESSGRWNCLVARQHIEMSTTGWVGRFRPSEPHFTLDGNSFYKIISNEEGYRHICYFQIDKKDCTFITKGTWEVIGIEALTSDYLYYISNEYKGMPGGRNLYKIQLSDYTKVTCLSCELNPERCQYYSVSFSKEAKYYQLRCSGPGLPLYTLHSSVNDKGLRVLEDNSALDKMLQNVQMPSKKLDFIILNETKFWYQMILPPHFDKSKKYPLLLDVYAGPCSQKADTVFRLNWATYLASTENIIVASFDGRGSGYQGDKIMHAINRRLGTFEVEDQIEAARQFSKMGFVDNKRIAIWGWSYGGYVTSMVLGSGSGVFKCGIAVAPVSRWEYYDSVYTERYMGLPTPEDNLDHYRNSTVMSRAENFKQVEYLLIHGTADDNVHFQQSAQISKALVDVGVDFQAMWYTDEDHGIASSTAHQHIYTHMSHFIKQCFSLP
molecule,measurement,setting,value
"CC(C)[C@H](N)C(=O)N1CCC[C@H]1B(O)O [talabostat, Talabostat]",efficacy of oxaliplatin,colon carcinoma,enhanced
same,serum DPPIV inhibition,"serum DPPIV; dose of 600 ug/m2, at 24 hours",85%
same,dose-limiting toxicities,"serum DPPIV; phase I, pediatric solid tumors",No dose-limiting toxicities were observed
same,growth of primitive hematopoietic progenitor cells,[1],promoted growth
same,patients with adverse events resulting in death,[2]; none considered definitely or probably related to talabostat,eight
same,durable complete responses,[2]; with docetaxel,two
same,overall response rate,[2]; with docetaxel,9.1%
same,partial responses,[2]; with docetaxel,three
same,stable disease rate,[2]; with docetaxel,54%
same,myeloma cell proliferation,myeloma cells,concentration-dependent decreased
same,growth of syngeneic tumors,[3],slowed growth
same,Grade 5 adverse events,"[4]; single agent trial, acute renal failure due to cytokine storm",one
same,clinical responses,[4]; single agent,no complete or partial responses
same,"osteoclast activity, bone resorption and tumor burden",myeloma,reduced
same,patients discontinuing talabostat due to side effects,stage IV melanoma; in vivo,18%
same,patients with grade 3 or 4 adverse events,stage IV melanoma; in vivo,56%
same,patients with partial response,"stage IV melanoma; with cisplatin, second-line",8.1%
same,patients with stable disease,"stage IV melanoma; with cisplatin, second-line",62.5%
polyphyllin,tumor growth in vivo,gastric cancer,decreased
same,CAF proliferation in vitro,CAF,decreased
sibrotuzumab: humanized monoclonal anti-FAP antibody,dose limiting toxicity,[5]; in vivo,one
same,clinical responses,[5]; phase I,no clinical responses
same,patients with stable disease,[5]; phase I,2/26
same,tolerability,[6]; in vivo,well tolerated
same,clinical activity,"[6]; phase II, trial suspended",lack of clinical activity
